From ChEMBL document CHEMBL2040771, “Discovery of a potent inhibitor of anaplastic lymphoma kinase with in vivo antitumor activity” (ACS Med Chem Lett, 2010)
Active and inactive are the calls of the source. The rule behind the calls is not given here.

How the values were obtained:
[1] = molecular target: Macrophage colony-stimulating factor 1 receptor (Homo sapiens) (UniProt P07333); assay: Inhibition of CSF1R at 0.1 uM
[2] = molecular target: Serine/threonine-protein kinase PLK4 (Homo sapiens) (UniProt O00444); assay: Inhibition of PLK4 at 0.1 uM
[3] = molecular target: ALK tyrosine kinase receptor (Homo sapiens, UniProt Q9UM73); conditions: 1 uM
Description: Inhibition of ALK at 1 uM

Mus musculus [4] = assay: Toxicity in SCID mouse xenografted with human SUP-M2 cells at 10 mg/kg, po BID for 12 days; format: organism-based; parameters: dose 10 mg/kg, route oral; conditions: in vivo, 288 h
[5] = Plasma clearance in SCID mouse at 1 mg/kg, iv by LC/MS/MS analysis; format: ADME, organism-based; parameters: dose 1 mg/kg, route intravenous
[6] = molecular target: Ribosomal protein S6 kinase alpha-1 (Homo sapiens) (UniProt Q15418); assay: Inhibition of RPS6KA1 at 1 uM
[7] = molecular target: Leukocyte tyrosine kinase receptor (Homo sapiens) (UniProt P29376); assay: Inhibition of LTK at 0.1 uM
[8] = tested on: Mast/stem cell growth factor receptor Kit (Homo sapiens), P10721 [D816V]; assay: Inhibition of KIT D816V mutant at 0.1 uM
[9] = molecular target: Ribosomal protein S6 kinase alpha-2 (Homo sapiens) (UniProt Q15349); assay: Inhibition of RPS6KA2 at 0.1 uM
[10] = Plasma clearance in beagle dog at 1 mg/kg, iv by LC/MS/MS analysis; format: ADME, organism-based, Canis lupus familiaris; parameters: dose 1 mg/kg, route intravenous
[11] = molecular target: Cyclin-G-associated kinase (Homo sapiens) (UniProt O14976); assay: Inhibition of GAK at 1 uM
SUP-M2 [12] = assay: Antitumor activity against ALK-positive human SUP-M2 cells xenografted in SCID mouse at 10 mg/kg, po bid after 12 days; format: functional, organism-based; parameters: dose 10 mg/kg
[13] = molecular target: Leukocyte tyrosine kinase receptor (Homo sapiens) (UniProt P29376); assay: Inhibition of LTK at 1 uM
Mus musculus [14] = assay: Antitumor activity in ALK-positive human SUP-M2 cells xenografted in SCID mouse assessed as inhibition of NPM-ALK autophosphorylation in tumor lysate at 30 mg/kg, po administered as single dose measured after 12 hrs; format: functional; conditions: SUP-M2, Neoplasm, read-out: TGI
[15] = molecular target: Mitogen-activated protein kinase kinase kinase 5 (Homo sapiens) (UniProt Q99683); assay: Inhibition of ASK1 at 0.1 uM
[16] = molecular target: Serine/threonine-protein kinase ULK3 (Homo sapiens) (UniProt Q6PHR2); assay: Inhibition of ULK3 at 1 uM
SUP-M2 [17] = assay: Antitumor activity against ALK-positive human SUP-M2 cells xenografted in SCID mouse assessed as complete tumor regression at 55 mg/kg, po bid after 12 days; format: functional, organism-based; parameters: dose 55 mg/kg
[18] = molecular target: Serine/threonine-protein kinase 3 (Homo sapiens) (UniProt Q13188); assay: Inhibition of MST2 at 1 uM
[19] = tested on: Receptor-type tyrosine-protein kinase FLT3 (Homo sapiens), P36888 [N841I]; assay: Inhibition of FLT3 N841I mutant at 0.1 uM
[20] = molecular target: Proto-oncogene tyrosine-protein kinase ROS (Homo sapiens) (UniProt P08922); assay: Inhibition of ROS at 0.1 uM
Canis familiaris = assay: Clearance with respect to hepatic blood flow in beagle dog at 1 mg/kg, iv; format: ADME, organism-based, Canis lupus familiaris, Liver; parameters: dose 1 mg/kg, route intravenous; conditions: in vivo
[21] = molecular target: Epidermal growth factor receptor (Homo sapiens) (UniProt P00533); assay: Inhibition of EGFR at 0.1 uM
[22] = AUC in SCID mouse at 1 mg/kg, iv; format: ADME, organism-based; parameters: dose 1 mg/kg, route intravenous; conditions: plasma
[23] = molecular target: NUAK family SNF1-like kinase 1 (Homo sapiens) (UniProt O60285); assay: Inhibition of ARK5 at 1 uM
[24] = molecular target: Protein-tyrosine kinase 6 (Homo sapiens) (UniProt Q13882); assay: Inhibition of BRK at 1 uM
[25] = molecular target: Focal adhesion kinase 1 (Homo sapiens) (UniProt Q05397); assay: Inhibition of FAK at 0.1 uM
[26] = Volume of distribution in beagle dog at 1 mg/kg, iv; format: ADME, organism-based, Canis lupus familiaris; parameters: dose 1 mg/kg, route intravenous; conditions: in vivo
K562 [27] = assay: Induction apoptosis in ALK-negative human K562 cells assessed as activation of caspase 3/7 by fluorometric assay; format: functional, cell-based
[28] = molecular target: Serine/threonine-protein kinase 32B (Homo sapiens) (UniProt Q9NY57); assay: Inhibition of YANK2 at 0.1 uM
[29] = Tmax in SCID mouse at 10 mg/kg, po; format: ADME, organism-based; parameters: dose 10 mg/kg, route oral; conditions: in vivo
[30] = Oral bioavailability in Sprague-Dawley rat at 5 mg/kg; format: ADME, organism-based; conditions: in vivo
[31] = molecular target: Fibroblast growth factor receptor 4 (Homo sapiens) (UniProt P22455); assay: Inhibition of FGFR4 at 1 uM
[32] = molecular target: Serine/threonine-protein kinase ULK3 (Homo sapiens) (UniProt Q6PHR2); assay: Inhibition of ULK3 at 0.1 uM
[33] = molecular target: Tyrosine-protein kinase Fer (Homo sapiens) (UniProt P16591); assay: Inhibition of FER at 1 uM
[34] = tested on: Epidermal growth factor receptor (Homo sapiens), P00533 [L858R]; assay: Inhibition of EGFR L858R mutant at 0.1 uM; format: protein assay
[35] = molecular target: Ribosomal protein S6 kinase alpha-1 (Homo sapiens) (UniProt Q15418); assay: Inhibition of RPS6KA1 at 0.1 uM
[36] = molecular target: Non-receptor tyrosine-protein kinase TNK1 (Homo sapiens) (UniProt Q13470); assay: Inhibition of TNK1 at 1 uM
[37] = molecular target: Focal adhesion kinase 1 (Homo sapiens) (UniProt Q05397); assay: Inhibition of FAK at 1 uM
[38] = Ratio of drug level in tumor to plasma in SCID mouse; format: ADME; conditions: tumor and plasma
[39] = Volume of distribution in SCID mouse at 1 mg/kg, iv; format: ADME, organism-based; parameters: dose 1 mg/kg, route intravenous; conditions: in vivo
[40] = molecular target: Ribosomal protein S6 kinase alpha-2 (Homo sapiens) (UniProt Q15349); assay: Inhibition of RPS6KA2 at 1 uM
[41] = molecular target: Macrophage colony-stimulating factor 1 receptor (Homo sapiens) (UniProt P07333); assay: Inhibition of CSF1R at 1 uM
[42] = Half life in beagle dog at 10 mg/kg, po; format: ADME, organism-based, Canis lupus familiaris; parameters: dose 10 mg/kg, route oral; conditions: in vivo
[43] = Plasma concentration in SCID mouse xenografted with ALK-positive human SUP-M2 cells at 10 mg/kg, po bid for 12 days; format: ADME, organism-based; parameters: dose 10 mg/kg, route oral
[44] = Plasma protein binding in mouse; format: ADME, cell-free; conditions: read-out: PPB (converted)
[45] = Half life in Sprague-Dawley rat at 5 mg/kg, po; format: ADME, organism-based; parameters: dose 5 mg/kg, route oral; conditions: in vivo
SUP-M2 [46] = assay: Antitumor activity against ALK-positive human SUP-M2 cells xenografted in po dosed SCID mouse bid after 12 days; format: functional, organism-based
[47] = molecular target: Tyrosine-protein kinase Srms (Homo sapiens) (UniProt Q9H3Y6); assay: Inhibition of SRMS at 0.1 uM
[48] = molecular target: Dual specificity mitogen-activated protein kinase kinase 4 (Homo sapiens) (UniProt P45985); assay: Inhibition of MEK4 at 0.1 uM
K562 [49] = assay: Growth inhibition of ALK-negative human K562 cells up to 1 uM by MTS assay; format: functional, cell-based
[50] = AUC in beagle dog at 10 mg/kg, po; format: ADME, organism-based, Canis lupus familiaris; parameters: dose 10 mg/kg, route oral; conditions: plasma
[51] = tested on: Receptor-type tyrosine-protein kinase FLT3 (Homo sapiens), P36888 [N841I]; assay: Inhibition of FLT3 N841I mutant at 1 uM
[52] = Volume of distribution in Sprague-Dawley rat at 1 mg/kg, iv; format: ADME, organism-based; parameters: dose 1 mg/kg, route intravenous; conditions: in vivo
[53] = molecular target: Epidermal growth factor receptor (Homo sapiens) (UniProt P00533); assay: Inhibition of EGFR at 1 uM
[54] = molecular target: Non-receptor tyrosine-protein kinase TNK1 (Homo sapiens) (UniProt Q13470); assay: Inhibition of TNK1 at 0.1 uM

Sequence of Leukocyte tyrosine kinase receptor (Homo sapiens) (P29376 whole entry): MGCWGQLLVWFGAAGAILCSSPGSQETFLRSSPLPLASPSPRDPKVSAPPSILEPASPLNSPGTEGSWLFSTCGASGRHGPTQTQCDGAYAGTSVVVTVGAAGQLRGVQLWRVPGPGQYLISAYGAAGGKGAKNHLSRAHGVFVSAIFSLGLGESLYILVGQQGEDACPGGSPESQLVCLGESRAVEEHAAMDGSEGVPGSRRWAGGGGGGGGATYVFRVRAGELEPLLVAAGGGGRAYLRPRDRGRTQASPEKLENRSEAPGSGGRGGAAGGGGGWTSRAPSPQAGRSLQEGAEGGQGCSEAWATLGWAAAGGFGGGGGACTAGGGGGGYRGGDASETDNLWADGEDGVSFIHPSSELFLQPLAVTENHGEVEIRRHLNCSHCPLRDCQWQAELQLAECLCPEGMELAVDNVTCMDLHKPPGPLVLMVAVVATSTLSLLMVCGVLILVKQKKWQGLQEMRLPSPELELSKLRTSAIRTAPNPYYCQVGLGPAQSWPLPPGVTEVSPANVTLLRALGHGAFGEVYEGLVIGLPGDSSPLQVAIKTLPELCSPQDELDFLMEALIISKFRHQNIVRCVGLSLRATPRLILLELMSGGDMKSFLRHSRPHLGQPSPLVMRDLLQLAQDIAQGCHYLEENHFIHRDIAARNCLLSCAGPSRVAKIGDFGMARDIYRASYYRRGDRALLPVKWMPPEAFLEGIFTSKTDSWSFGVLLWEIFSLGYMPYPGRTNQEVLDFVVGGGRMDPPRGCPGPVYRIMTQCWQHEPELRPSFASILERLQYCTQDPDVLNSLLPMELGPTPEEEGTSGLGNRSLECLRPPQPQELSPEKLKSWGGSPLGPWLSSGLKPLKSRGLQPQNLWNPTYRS
Sequence of Focal adhesion kinase 1 (Homo sapiens) (Q05397 2-1052 limits assumed): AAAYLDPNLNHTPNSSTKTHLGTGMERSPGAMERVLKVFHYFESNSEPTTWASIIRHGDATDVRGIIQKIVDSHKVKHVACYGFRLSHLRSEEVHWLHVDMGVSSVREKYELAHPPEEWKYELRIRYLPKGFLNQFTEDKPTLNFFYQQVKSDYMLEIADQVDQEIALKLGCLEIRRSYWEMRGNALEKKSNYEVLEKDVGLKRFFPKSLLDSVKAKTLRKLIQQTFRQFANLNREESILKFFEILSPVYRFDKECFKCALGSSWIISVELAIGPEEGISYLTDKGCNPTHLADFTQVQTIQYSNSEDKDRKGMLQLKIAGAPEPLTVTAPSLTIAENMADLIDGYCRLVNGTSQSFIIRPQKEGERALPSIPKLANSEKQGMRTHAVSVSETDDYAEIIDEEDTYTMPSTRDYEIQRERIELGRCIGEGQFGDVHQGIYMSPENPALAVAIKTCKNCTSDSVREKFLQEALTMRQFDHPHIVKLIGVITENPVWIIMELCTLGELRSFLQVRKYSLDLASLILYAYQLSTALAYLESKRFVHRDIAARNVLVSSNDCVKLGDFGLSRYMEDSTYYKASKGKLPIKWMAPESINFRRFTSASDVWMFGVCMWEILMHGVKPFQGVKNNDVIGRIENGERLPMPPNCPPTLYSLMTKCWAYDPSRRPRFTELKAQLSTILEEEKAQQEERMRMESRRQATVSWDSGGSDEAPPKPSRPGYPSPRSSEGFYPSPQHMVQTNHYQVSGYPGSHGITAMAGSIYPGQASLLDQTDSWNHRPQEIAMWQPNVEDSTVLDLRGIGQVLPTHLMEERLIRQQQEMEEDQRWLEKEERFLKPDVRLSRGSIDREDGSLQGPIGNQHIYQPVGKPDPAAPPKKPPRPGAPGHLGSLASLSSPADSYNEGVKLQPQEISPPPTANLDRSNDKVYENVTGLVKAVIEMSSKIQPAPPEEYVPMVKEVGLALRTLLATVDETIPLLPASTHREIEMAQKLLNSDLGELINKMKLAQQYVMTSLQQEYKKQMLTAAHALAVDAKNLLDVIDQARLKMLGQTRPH
Sequence of Serine/threonine-protein kinase ULK3 (Homo sapiens) (Q6PHR2 whole entry): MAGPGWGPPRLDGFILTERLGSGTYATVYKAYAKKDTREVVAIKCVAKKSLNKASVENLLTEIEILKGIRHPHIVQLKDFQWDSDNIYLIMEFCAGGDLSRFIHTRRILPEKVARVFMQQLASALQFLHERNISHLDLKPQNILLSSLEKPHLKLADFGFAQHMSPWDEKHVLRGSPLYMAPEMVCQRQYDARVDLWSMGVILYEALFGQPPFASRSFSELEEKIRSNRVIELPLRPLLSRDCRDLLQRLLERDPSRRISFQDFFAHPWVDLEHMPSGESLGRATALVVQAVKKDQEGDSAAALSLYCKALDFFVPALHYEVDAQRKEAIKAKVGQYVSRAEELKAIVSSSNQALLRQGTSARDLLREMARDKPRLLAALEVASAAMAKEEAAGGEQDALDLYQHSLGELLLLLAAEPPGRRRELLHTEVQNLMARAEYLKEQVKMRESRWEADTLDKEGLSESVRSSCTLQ
Sequence of Ribosomal protein S6 kinase alpha-1 (Homo sapiens) (Q15418 whole entry): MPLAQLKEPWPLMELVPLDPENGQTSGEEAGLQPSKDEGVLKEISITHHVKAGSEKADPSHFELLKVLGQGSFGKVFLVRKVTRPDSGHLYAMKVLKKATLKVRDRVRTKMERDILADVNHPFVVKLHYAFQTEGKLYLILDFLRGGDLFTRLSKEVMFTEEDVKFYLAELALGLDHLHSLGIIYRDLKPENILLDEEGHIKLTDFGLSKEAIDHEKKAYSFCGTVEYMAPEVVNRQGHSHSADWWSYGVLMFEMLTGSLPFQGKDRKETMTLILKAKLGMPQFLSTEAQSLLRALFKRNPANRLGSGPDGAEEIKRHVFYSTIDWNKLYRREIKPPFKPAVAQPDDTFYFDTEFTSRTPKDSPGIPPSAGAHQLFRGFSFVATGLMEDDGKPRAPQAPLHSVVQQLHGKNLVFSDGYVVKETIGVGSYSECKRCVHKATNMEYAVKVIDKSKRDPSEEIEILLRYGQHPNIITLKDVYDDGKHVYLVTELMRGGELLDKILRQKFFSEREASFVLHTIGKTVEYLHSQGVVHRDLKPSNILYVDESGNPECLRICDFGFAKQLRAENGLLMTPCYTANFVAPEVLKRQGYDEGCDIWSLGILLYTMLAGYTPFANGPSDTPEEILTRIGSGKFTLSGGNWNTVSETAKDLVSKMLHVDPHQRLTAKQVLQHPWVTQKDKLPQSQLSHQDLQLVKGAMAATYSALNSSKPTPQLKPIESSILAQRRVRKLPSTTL
Sequence of Ribosomal protein S6 kinase alpha-2 (Homo sapiens) (Q15349 whole entry): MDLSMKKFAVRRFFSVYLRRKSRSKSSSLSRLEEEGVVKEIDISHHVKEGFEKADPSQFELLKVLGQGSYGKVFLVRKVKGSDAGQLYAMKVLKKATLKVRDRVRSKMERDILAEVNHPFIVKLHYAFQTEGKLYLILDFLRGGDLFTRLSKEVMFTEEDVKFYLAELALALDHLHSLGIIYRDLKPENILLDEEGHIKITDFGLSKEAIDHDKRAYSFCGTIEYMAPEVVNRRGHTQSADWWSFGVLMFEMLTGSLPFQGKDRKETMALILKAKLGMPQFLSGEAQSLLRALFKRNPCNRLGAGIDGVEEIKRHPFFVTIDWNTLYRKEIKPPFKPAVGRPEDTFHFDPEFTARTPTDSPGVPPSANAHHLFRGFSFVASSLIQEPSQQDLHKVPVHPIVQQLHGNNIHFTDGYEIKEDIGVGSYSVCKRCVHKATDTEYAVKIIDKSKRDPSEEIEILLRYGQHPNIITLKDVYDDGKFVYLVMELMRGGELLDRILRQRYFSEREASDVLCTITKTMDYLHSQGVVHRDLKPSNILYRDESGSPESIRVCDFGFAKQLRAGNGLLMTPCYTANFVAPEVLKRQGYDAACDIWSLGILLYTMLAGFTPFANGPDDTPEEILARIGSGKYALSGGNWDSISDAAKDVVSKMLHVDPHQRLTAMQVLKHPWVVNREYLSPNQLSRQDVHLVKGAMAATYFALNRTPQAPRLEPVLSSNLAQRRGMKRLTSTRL
Sequence of Macrophage colony-stimulating factor 1 receptor (Homo sapiens) (P07333 whole entry): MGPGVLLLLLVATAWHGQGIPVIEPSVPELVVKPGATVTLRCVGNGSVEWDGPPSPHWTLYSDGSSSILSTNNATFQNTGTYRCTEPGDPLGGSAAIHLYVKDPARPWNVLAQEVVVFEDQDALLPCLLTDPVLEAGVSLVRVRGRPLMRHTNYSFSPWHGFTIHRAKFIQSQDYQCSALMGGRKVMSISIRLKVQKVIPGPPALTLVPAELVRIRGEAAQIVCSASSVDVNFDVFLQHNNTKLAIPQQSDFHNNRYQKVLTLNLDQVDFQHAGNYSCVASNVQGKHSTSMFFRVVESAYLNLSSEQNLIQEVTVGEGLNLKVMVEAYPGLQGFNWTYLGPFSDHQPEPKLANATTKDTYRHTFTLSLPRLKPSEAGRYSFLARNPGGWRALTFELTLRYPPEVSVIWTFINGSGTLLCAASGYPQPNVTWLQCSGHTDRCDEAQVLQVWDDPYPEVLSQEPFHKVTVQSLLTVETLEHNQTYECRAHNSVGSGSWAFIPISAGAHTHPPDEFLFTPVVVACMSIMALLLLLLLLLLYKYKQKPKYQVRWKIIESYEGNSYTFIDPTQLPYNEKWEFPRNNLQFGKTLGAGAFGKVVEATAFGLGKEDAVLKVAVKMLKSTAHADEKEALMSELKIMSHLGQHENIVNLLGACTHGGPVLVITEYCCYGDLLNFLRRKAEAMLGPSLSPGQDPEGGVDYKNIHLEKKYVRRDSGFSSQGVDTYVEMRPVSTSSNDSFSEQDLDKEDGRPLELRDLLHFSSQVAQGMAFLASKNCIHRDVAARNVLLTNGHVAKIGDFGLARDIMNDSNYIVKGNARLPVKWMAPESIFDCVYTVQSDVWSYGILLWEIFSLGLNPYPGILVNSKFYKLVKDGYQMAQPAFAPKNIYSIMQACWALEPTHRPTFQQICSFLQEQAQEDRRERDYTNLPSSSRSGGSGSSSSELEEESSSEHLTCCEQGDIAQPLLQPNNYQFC

**Q.** Which inhibition [1] does the source give for CCN1C(=O)CCCc2c1ccc(Nc1ncc(Cl)c(N[C@H]3[C@@H](C(N)=O)[C@@H]4C=C[C@H]3C4)n1)c2OC here?
**A.** < 50%

**Q.** What about the inhibition [2] of the same molecule?
**A.** 95%

**Q.** What about the inhibition [3] of the same molecule?
**A.** 97%

**Q.** And the Activity (Mus musculus [4])?
**A.** Non-toxic

**Q.** What about the clearance [5] of the same molecule?
**A.** 37 mL/min/kg

**Q.** And the inhibition [6]?
**A.** 100%

**Q.** What about the inhibition [7] of the same molecule?
**A.** 96%

**Q.** And the inhibition [8]?
**A.** 94%

**Q.** And the inhibition [9]?
**A.** < 50%

**Q.** What about the clearance [10] of the same molecule?
**A.** 22 mL/min/kg

**Q.** What about the inhibition [11] of the same molecule?
**A.** 91%

**Q.** And the Activity (SUP-M2 [12])?
**A.** inactive

**Q.** What about the inhibition [13] of the same molecule?
**A.** 98%

**Q.** What about the inhibition in vivo at 30 mg/kg (Mus musculus [14]) of the same molecule?
**A.** > 80%

**Q.** And the inhibition [15]?
**A.** 72%

**Q.** And the inhibition [16]?
**A.** 94%

**Q.** What about the Activity (SUP-M2 [17]) of the same molecule?
**A.** Active

**Q.** What about the inhibition [18] of the same molecule?
**A.** 91%

**Q.** And the inhibition [19]?
**A.** < 50%

**Q.** And the inhibition [20]?
**A.** 77%

**Q.** What about the CL (Canis familiaris) of the same molecule?
**A.** 58%

**Q.** What about the inhibition [21] of the same molecule?
**A.** < 50%

**Q.** And the AUC [22]?
**A.** 446 ng·h/mL

**Q.** What about the inhibition [23] of the same molecule?
**A.** 92%

**Q.** What about the inhibition [24] of the same molecule?
**A.** 100%

**Q.** And the inhibition [25]?
**A.** 72%

**Q.** And the Vd [26]?
**A.** 2.1 L/kg

**Q.** And the Activity (K562 [27])?
**A.** inactive

**Q.** And the inhibition [28]?
**A.** < 50%

**Q.** And the Tmax [29]?
**A.** 15 min

**Q.** What about the bioavailability [30] of the same molecule?
**A.** 64%

**Q.** What about the inhibition [31] of the same molecule?
**A.** 98%

**Q.** What about the inhibition [32] of the same molecule?
**A.** < 50%

**Q.** What about the inhibition [33] of the same molecule?
**A.** 100%

**Q.** And the inhibition [34]?
**A.** < 50%

**Q.** What about the inhibition [35] of the same molecule?
**A.** 68%

**Q.** And the inhibition [36]?
**A.** 100%

**Q.** And the inhibition [37]?
**A.** 99%

**Q.** What about the Kp [38] of the same molecule?
**A.** 1.3

**Q.** What about the Vd [39] of the same molecule?
**A.** 0.9 L/kg

**Q.** And the inhibition [40]?
**A.** 100%

**Q.** And the inhibition [41]?
**A.** 91%

**Q.** And the half-life [42]?
**A.** 96 min

**Q.** And the concentration at 288 h [43]?
**A.** 337 ng/mL

**Q.** What about the fraction unbound [44] of the same molecule?
**A.** 0.08

**Q.** What about the half-life [45] of the same molecule?
**A.** 132 min

**Q.** What about the Activity (SUP-M2 [46]) of the same molecule?
**A.** Dose-dependent effect

**Q.** And the inhibition [47]?
**A.** < 50%

**Q.** And the inhibition [48]?
**A.** < 50%

**Q.** What about the “growth inhibition (GI)” value (K562 [49]) of the same molecule?
**A.** inactive

**Q.** And the AUC [50]?
**A.** 2480 ng·h/mL

**Q.** What about the inhibition [51] of the same molecule?
**A.** 95%

**Q.** What about the Vd [52] of the same molecule?
**A.** 0.9 L/kg

**Q.** And the inhibition [53]?
**A.** 96%

**Q.** And the inhibition [54]?
**A.** 93%
